Test results as given in US8501778B2, “Aralkyl piperidine derivatives and their uses as antalgic or ataractic agent” (priority 2008, dated 2013).
Structures can show the parent of a compound that is named as a salt. Where two headings read alike, the source gives them in different places. Marks after values point to notes of the source that are not given here.

Key:
Kunming mice [1] = assay: Acetic Acid Twisting Method in mice (antalgic effect); assay type: in vivo; conditions: for antalgic: single dosage 20 mg/kg, acetic acid twisting, unit not given (method: inhibiting rate %); for inhibition in vivo at 20 mg/kg / inhibition in vivo at 10 mg/kg / inhibition in vivo at 40 mg/kg: Mus musculus
Kunming mice [2] = assay: Sedative effect: spontaneous activity of the mice recorded with AC power tube; assay type: in vivo; conditions: single dosage 20 mg/kg, unit not given
Experimental: Kunming mice, clean class KM, purchased from Shanghai SLAC LABORATORY ANIMAL CO. LTD, breeding at general environment.
The compounds are formulated to solutions of 4 mg/ml, 2 mg/ml, and 1 mg/ml with water for injection. Animals in the control group and treatment group are all administered through subcutaneous injection at neck.
First of all, the mice in the treatment group are administrated with a solution of tested compounds (10 mg/kg, 20 mg/kg, 40 mg/kg) through subcutaneous injection at neck, the negative control group is administrated with physiological saline (20 ml/kg) orally, and the positive control group is administrated with Aspirin (20 ml/kg) orally. Each group is administrated with 10 ml/kg of 0.7% acetic acid via intraperitoneal injection (i.p.) after one hour. After 5 minutes, times of twisting response of each group of mice is recorded in 15 minutes, and twisting response inhibiting rate of each of the treatment groups is calculated according to the following equation: Inhibiting rate %=(average twisting times of negative control group−average twisting times of treated group)/average twisting times of negative control group×100% 6. A Sedative Effect is Evaluated by Using AC Power Tube to Record Spontaneous Activity of the Mice. 7. Testing the Antalgic and Sedative Effect of the Compounds with Single Dosage (20 mg/kg), See Table 2 for Details.

Kunming mice [3] = assay: Hot Plate Method in mice (antalgic effect); assay type: in vivo
mice [4] = conditions: mouse, in vivo
mice [5] = conditions: daily for eight days; III-15 60 mg/kg oral gavage, Morphine 10 mg/kg PO; Hot Plate 15 minutes after each administration
mice [6] = assay: Jump test in mice (physical dependence, naloxone precipitated); conditions: III-15 seven times in two days, 20-120 mg/kg PO, naloxone 2 mg/kg i.v. three hours after last dosing
mice [7] = assay: Conditioned Place Preference test in mice (psychological dependence); conditions: III-15 60 mg/kg oral gavage each day for six consecutive days
[8] = sc, read-out: twisting response inhibiting rate (%)
[9] = Mus musculus, sc, 10 mg/kg, subcutaneous injection at neck, 1 hour after dosing, hot plate 55.5° C., read-out: Increasing rate of pain threshold (%)
[10] = Mus musculus, sc, 20 mg/kg, subcutaneous injection at neck, 1 hour after dosing, hot plate 55.5° C., read-out: Increasing rate of pain threshold (%)
[11] = Mus musculus, sc, 40 mg/kg, subcutaneous injection at neck, 1 hour after dosing, hot plate 55.5° C., read-out: Increasing rate of pain threshold (%)
[12] = sc, 10 mg/kg, subcutaneous injection at neck, mice, read-out: twisting response inhibiting rate (%)
[13] = sc, 20 mg/kg, subcutaneous injection at neck, mice, read-out: twisting response inhibiting rate (%)
[14] = sc, 40 mg/kg, subcutaneous injection at neck, mice, read-out: twisting response inhibiting rate (%)

Structure (SMILES): CC(=O)Nc1ccc(CN2CCC(O)(CC(O)c3ccccc3)CC2)cc1.Cl (centres unmarked) [Compound V-2, N-p-acetylaminobenzyl-4-(2-hydroxy-2-phenylethyl)-4-piperidinol hydrochloride]
- antalgic (Kunming mice [1]; mice): 80
- sedative (Kunming mice [2]): 39.6

Structure (SMILES): Nc1ccc(CN2CCC(O)(CC(=O)c3ccccc3)CC2)cc1 [III-5, N-p-aminobenzyl-4-benzoylmethyl-4-piperidinol hydrochloride]
- inhibition in vivo at 20 mg/kg (Kunming mice [1]; sc, read-out: antalgic): 100%
- inhibition in vivo at 10 mg/kg (Kunming mice [1]; [8]): 100%
- inhibition in vivo at 20 mg/kg (Kunming mice [1]; [8]): 100%
- inhibition in vivo at 40 mg/kg (Kunming mice [1]; [8]): 100%
- change in vivo at 10 mg/kg (Kunming mice [3]; [9]): 58.3%
- change in vivo at 20 mg/kg (Kunming mice [3]; [10]): 75.6%
- change in vivo at 40 mg/kg (Kunming mice [3]; [11]): 190%

Structure (SMILES): CC(=O)Nc1ccc(CN2CCC(O)(CC(=O)c3ccccc3)CC2)cc1.Cl [III-6, N-p-acetylaminobenzyl-4-benzoylmethyl-4-piperidinol hydrochloride]
- antalgic (Kunming mice [1]; mice): 45
- sedative (Kunming mice [2]): 75

Structure (SMILES): O=C(CC1(O)CCN(C(c2ccccc2)c2ccccc2)CC1)c1ccccc1 [III-7, N-diphenylmethyl-4-benzoylmethyl-4-piperidinol hydrochloride]
- inhibition in vivo at 10 mg/kg (Kunming mice [1]; po, 10 mg/kg, gavage administration, mice, read-out: twisting response inhibiting rate (%)): 25.8%
- inhibition in vivo at 20 mg/kg (Kunming mice [1]; po, 20 mg/kg, gavage administration, mice, read-out: twisting response inhibiting rate (%)): 38%
- inhibition in vivo at 40 mg/kg (Kunming mice [1]; po, 40 mg/kg, gavage administration, mice, read-out: twisting response inhibiting rate (%)): 44.2%
- inhibition in vivo at 20 mg/kg (Kunming mice [1]; sc, read-out: antalgic): 45%
- change in vivo at 10 mg/kg (Kunming mice [3]; Mus musculus, po, 1 h, 10 mg/kg, gavage administration, hot plate, read-out: Increasing rate of pain threshold (%)): 82.8%
- change in vivo at 20 mg/kg (Kunming mice [3]; Mus musculus, po, 1 h, 20 mg/kg, gavage administration, hot plate, read-out: Increasing rate of pain threshold (%)): 126%

Structure (SMILES): COc1ccc(C(C)N2CCC(F)(CC(=O)c3ccccc3)CC2)cc1 (centres unmarked) [IX-1, N-(1-(p-methoxyphenyl)ethyl)-4-benzoylmethyl-4-fluoropiperidine hydrochloride]
- inhibition in vivo at 20 mg/kg (Kunming mice [1]; sc, read-out: antalgic): 76%
- inhibition in vivo at 10 mg/kg (Kunming mice [1]; [12]): 60.4%
- inhibition in vivo at 20 mg/kg (Kunming mice [1]; [13]): 68.7%
- inhibition in vivo at 40 mg/kg (Kunming mice [1]; [14]): 81%
- change in vivo at 10 mg/kg (Kunming mice [3]; [9]): 86.4%
- change in vivo at 20 mg/kg (Kunming mice [3]; [10]): 109%
- change in vivo at 40 mg/kg (Kunming mice [3]; [11]): 156%

Structure (SMILES): CC(c1ccc(N2CCOCC2)cc1)N1CCC(Cl)(CC(=O)c2ccccc2)CC1 (centres unmarked) [IX-7, N-(1-(4-morpholinophenyl)ethyl)-4-benzoylmethyl-4-chloropiperidine hydrochloride]
- inhibition in vivo at 20 mg/kg (Kunming mice [1]; sc, read-out: antalgic): 72%
- inhibition in vivo at 10 mg/kg (Kunming mice [1]; [12]): 66%
- inhibition in vivo at 20 mg/kg (Kunming mice [1]; [13]): 60.3%
- inhibition in vivo at 40 mg/kg (Kunming mice [1]; [14]): 76.4%
- change in vivo at 10 mg/kg (Kunming mice [3]; [9]): 79.5%
- change in vivo at 20 mg/kg (Kunming mice [3]; [10]): 101%
- change in vivo at 40 mg/kg (Kunming mice [3]; [11]): 130%

Structure (SMILES): CN1CC[C@]23c4c5ccc(O)c4O[C@H]2[C@@H](O)C=C[C@H]3[C@H]1C5 [Morphine, reference compound]
- change in vivo at 2 mg/kg (Kunming mice [3]; Mus musculus, sc, 1 h, positive control, 2 mg/kg (remark), subcutaneous injection, hot plate, read-out: Increasing rate of pain threshold (%)): 202%
- reversal of the antalgic effect by naloxone (mice [4]): is reversed by naloxone
- change of pain threshold / antalgic effect on consecutive administration (drug resistance) (mice [5]): reduces gradually starting from the second day of administration
- jumping behavior after naloxone (physical dependence) (mice [6]): obvious jumping behavior
- Conditioned Place Preference (psychological dependence) (mice [7]): show obvious Conditioned Place Preference

Structure (SMILES): COC1(CC(=O)c2ccccc2)CCN(Cc2ccc(NC(C)=O)cc2)CC1.Cl [VIII-1, N-p-acetylaminobenzyl-4-benzoylmethyl-4-methoxylpiperidine hydrochloride]
- twisting response inhibiting rate (%) (Kunming mice [1]; 10 mg/kg, subcutaneous injection at neck, mice): 35.03* %
- twisting response inhibiting rate (%) (Kunming mice [1]; 20 mg/kg, subcutaneous injection at neck, mice): 42.11%
- twisting response inhibiting rate (%) (Kunming mice [1]; 40 mg/kg, subcutaneous injection at neck, mice): 57.69%
- antalgic (Kunming mice [1]; mice): 64
- sedative (Kunming mice [2]): 48
- Increasing rate of pain threshold (%) (Kunming mice [3]; 10 mg/kg, subcutaneous injection at neck, 1 hour after dosing, hot plate 55.5° C.): 61.04%
- Increasing rate of pain threshold (%) (Kunming mice [3]; 20 mg/kg, subcutaneous injection at neck, 1 hour after dosing, hot plate 55.5° C.): 76.63* %
- Increasing rate of pain threshold (%) (Kunming mice [3]; 40 mg/kg, subcutaneous injection at neck, 1 hour after dosing, hot plate 55.5° C.): 105.20* %
